Reference: ChEMBL document CHEMBL1125943, “Preparation of the geometric isomers of DDC, DDA, D4C and D4T as potential anti-HIV agents” (Bioorg Med Chem Lett, 1991)

Tests used:
CCRF-CEM [1] = assay: Compound was tested for cellular toxicity against HIV in CEM cells at concentration up to 100 uM; IA means inactive; format: cell-based; conditions: human
CCRF-CEM [2] = assay: The inhibitory dose against HIV in CEM cells was evaluated.; format: functional, Homo sapiens; conditions: read-out: ID50 (the source's name)

Compound | Toxicity (CCRF-CEM [1]) | further results
Cc1cn([C@@H]2C=C[C@H](CO)O2)c(=O)[nH]c1=O | Not Active | 
Nc1ccn([C@@H]2CC[C@H](CO)O2)c(=O)n1 |  | IC50 (CCRF-CEM [2]; Homo sapiens, CCRF-CEM): 660 nM
Nc1ccn([C@@H]2C=C[C@H](CO)O2)c(=O)n1 | Not Active | 
Nc1ccn(C2CC[C@H](CO)O2)c(=O)n1 (single isomer, unassigned) | Not Active | 
Nc1ncnc2c1ncn2[C@H]1CC[C@@H](CO)O1 (single isomer, unassigned) | Not Active | 
Nc1ccn([C@H]2CC[C@@H](CO)O2)c(=O)n1 (stereo in doubt; form 1) [ZALCITABINE] |  | IC50 (CCRF-CEM [2]): < 100 nM
Nc1ccn([C@H]2CC[C@@H](CO)O2)c(=O)n1 (stereo in doubt; form 2) [ZALCITABINE] |  | IC50 (CCRF-CEM [2]): 40 nM
